Assay results as given in article PMC6081956 (ChemMedChem, 2018).
Entries after “also recorded” stand apart in the source; their conditions may differ. Read-outs that look alike come from different tables or passages of the source.

Tests used:
[1] = test system: PXR target gene Cyp3a11 mRNA; assay: Cyp3a11 mRNA expression; assay type: cell-based; settings: PXR-humanized mouse hepatocytes, 10 µM, 72 h, normalized to GAPDH
PXR-LBD-SRC1p [2] = molecular target: T1, PXR-LBD-SRC1p (Homo sapiens, UniProt O75469); assay: Competitive isothermal titration calorimetry; assay type: binding; settings: for ΔG°: from KD of competitive ITC
T1 sequence (O75469 with tags, fused parts or gaps limits assumed): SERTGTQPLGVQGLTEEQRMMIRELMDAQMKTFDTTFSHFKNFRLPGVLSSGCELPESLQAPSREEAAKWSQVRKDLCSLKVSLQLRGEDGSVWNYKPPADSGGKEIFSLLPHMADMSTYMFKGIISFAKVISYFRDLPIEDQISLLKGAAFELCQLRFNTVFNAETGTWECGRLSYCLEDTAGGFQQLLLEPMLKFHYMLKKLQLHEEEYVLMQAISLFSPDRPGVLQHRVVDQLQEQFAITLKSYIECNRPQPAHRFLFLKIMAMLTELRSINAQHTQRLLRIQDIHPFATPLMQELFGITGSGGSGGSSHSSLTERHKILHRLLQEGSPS

PXR-LBD = molecular target: T2, PXR-LBD (Homo sapiens, UniProt O75469); assay: biochemical
T2 sequence (O75469 111-434): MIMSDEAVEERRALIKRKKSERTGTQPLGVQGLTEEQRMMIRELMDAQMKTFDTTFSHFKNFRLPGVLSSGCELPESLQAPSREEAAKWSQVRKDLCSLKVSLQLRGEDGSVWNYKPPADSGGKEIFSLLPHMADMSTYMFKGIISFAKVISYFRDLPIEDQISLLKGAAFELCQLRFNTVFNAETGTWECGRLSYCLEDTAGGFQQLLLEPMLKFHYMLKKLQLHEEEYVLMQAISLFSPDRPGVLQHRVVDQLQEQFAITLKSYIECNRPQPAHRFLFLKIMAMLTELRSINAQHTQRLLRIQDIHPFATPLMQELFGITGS

PXR-LBD-SRC1p [3] = molecular target: T1, PXR-LBD-SRC1p; assay: Isothermal titration calorimetry; assay type: binding; settings: for -TΔS° / ΔH° / ΔG° / N value (stoichiometry, single-site binding model): direct ITC; for -TΔS° / ΔH°: 25°C; for ΔG°: from KD by ΔG° = -RTlnKD
CYP3A4 mRNA = assay type: cell-based; settings: 10 µM 8-OHEFV co-incubated with 2 µM RIF, 48 h, primary human hepatocytes, p=0.004
[4] = 129 patients receiving 600 mg of EFV per day, cited from earlier work
[5] = test system: PXR target gene Cyp3a11 mRNA; assay: Cyp3a11 mRNA expression; assay type: cell-based; settings: PXR-null mouse hepatocytes, 10 µM, 72 h

Kd (PXR-LBD-SRC1p [2]) [µM]	ΔG° (PXR-LBD-SRC1p [2]) [kcal/mol]	Kd (PXR-LBD-SRC1p [3]) [µM]	-TΔS° (PXR-LBD-SRC1p [3]) [kcal/mol•K]	ΔH° (PXR-LBD-SRC1p [3]) [kcal/mol]	ΔG° (PXR-LBD-SRC1p [3]) [kcal/mol]	Structure (SMILES)	other results
4.2 ± 1.1	-7.3 ± 0.2	–	–	–	–	COc1ccc(C(=O)Nc2ccc(Cl)cc2C(O)(C#CC2CC2)C(F)(F)F)cc1 (stereo not shown) [analog 7, N-(4-chloro-2-(4-cyclopropyl-1,1,1-trifluoro-2-hydroxybut-3-yn-2-yl)phenyl)-4-methoxybenzamide]	Cyp3a11 mRNA levels, fold change from DMSO control [1]: 37 fold
> 400	–	–	–	–	–	Nc1ccc(Cl)cc1C(=O)C(F)(F)F [analog 10, 1-(2-amino-5-chlorophenyl)-2,2,2-trifluoroethan-1-one]	Cyp3a11 mRNA levels, fold change from DMSO control [1]: no change in the Cyp3a11 mRNA levels
–	–	–	–	–	–	COc1ccc(C2Nc3ccc(Cl)cc3[C@@](C#CC3CC3)(C(F)(F)F)O2)cc1 (stereo partly drawn) [analog 9, (S)-6-chloro-4-(cyclopropylethynyl)-2-(4-methoxyphenyl)-4-(trifluoromethyl)-1,4-dihydro-2H-benzo[d][1,3]oxazine]	IC50 (PXR-LBD): 39.3 ± 24.1 µM
–	–	14.9 ± 2.6	−4.8 ±0.3	-1.8 ± 0.1	-6.6 ± 0.1	FC(F)(F)[C@@]1(C#CC2CC2)OCNc2ccc(Cl)cc21 [analog 8, (S)-6-chloro-4-(cyclopropylethynyl)-4-(trifluoromethyl)-1,4-dihydro-2H-benzo[d][1,3]oxazine]	–
14.5 ± 4.3	-6.6 ± 0.1	–	–	–	–	COc1ccc(CNc2ccc(Cl)cc2[C@](O)(C#CC2CC2)C(F)(F)F)cc1 [analog 5, (R)-2-(5-chloro-2-((4-methoxybenzyl)amino)phenyl)-4-cyclopropyl-1,1,1-trifluorobut-3-yn-2-ol]	–
10.5 ± 1.5	-6.8 ± 0.2	–	–	–	–	O=C1Cc2ccc(Cl)cc2C(C#CC2CC2)(C(F)(F)F)O1 (stereo not shown) [analog 16, 7-chloro-1-(cyclopropylethynyl)-1-(trifluoromethyl)isochroman-3-one]	–
9.5 ± 2.7	-6.8 ± 0.2	–	–	–	–	COc1ccc(CNc2ccc(Cl)cc2[C@@](O)(C#CC2CC2)C(F)(F)F)cc1 [analog 6, (S)-2-(5-chloro-2-((4-methoxybenzyl)amino)phenyl)-4-cyclopropyl-1,1,1-trifluorobut-3-yn-2-ol]	–
–	–	78.7 ± 15.3	−4.5 ±0.2	-1.1 ± 0.1	-5.6 ± 0.1	CCCC#CC1(C(F)(F)F)OC(=O)Nc2ccc(Cl)cc21 (stereo not shown) [analog 4, 6-chloro-4-(pent-1-yn-1-yl)-4-(trifluoromethyl)-1,4-dihydro-2H-benzo[d][1,3]oxazin-2-one]	–
–	–	7.9 ± 7.7	−3.8 ± 1.5	-3.1 ± 1.2	-6.9 ± 0.3	O=C1Nc2c(O)cc(Cl)cc2[C@@](C#CC2CC2)(C(F)(F)F)O1 [8-OHEFV, (S)-6-chloro-4-(cyclopropylethynyl)-8-hydroxy-4-(trifluoromethyl)-1,4-dihydro-2H-benzo[d][1,3]oxazin-2-one]	N value (stoichiometry, single-site binding model) (PXR-LBD-SRC1p [3]): approximately 1.0; Cyp3a11 mRNA levels, fold change from DMSO control [1]: did not result in modulation of Cyp3a11 mRNA levels; also recorded: did not result in a change in Cyp3a11 mRNA levels; decrease in CYP3A4 mRNA induction as compared to 2 µM RIF alone (CYP3A4 mRNA): ~20%; plasma concentration ([4]; at 4 weeks ref 7): 6.51 ± 0.87 µM; plasma concentration ([4]; at 16 weeks ref 7): 6.84 ± 1.06 µM
–	–	10.9 ± 1.8	−5.1 ±0.2	-1.6 ± 0.2	-6.8 ± 0.1	O=C1Oc2ccc(Cl)cc2C(C#CC2CC2)(C(F)(F)F)O1 (stereo not shown) [analog 15, 6-chloro-4-(cyclopropylethynyl)-4-(trifluoromethyl)-4H-benzo[d][1,3]dioxin-2-one]	–

Structure (SMILES)	Kd (PXR-LBD-SRC1p [2]) [µM]	ΔG° (PXR-LBD-SRC1p [2]) [kcal/mol]	Kd (PXR-LBD-SRC1p [3]) [µM]	-TΔS° (PXR-LBD-SRC1p [3]) [kcal/mol•K]	ΔH° (PXR-LBD-SRC1p [3]) [kcal/mol]	ΔG° (PXR-LBD-SRC1p [3]) [kcal/mol]	other results
O=C1Nc2ccc(Cl)cc2[C@@](C#CC2CC2)(C(F)(F)F)O1 [EFV, (S)-6-chloro-4-(cyclopropylethynyl)-4-(trifluoromethyl)-1,4-dihydro-2H-benzo[d][1,3]oxazin-2-one, reference compound]	–	–	–	−4.9 ±0.4	-2.1 ± 0.3	-6.9 ± 0.2	N value (stoichiometry, single-site binding model) (PXR-LBD-SRC1p [3]): approximately 1.0; Cyp3a11 mRNA abundance [5]: no impact on Cyp3a11 mRNA abundance; plasma concentration ([4]; at 4 weeks ref 7): 10.61 ± 1.11 µM; plasma concentration ([4]; at 16 weeks ref 7): 10.33 ± 0.98 µM
